Values of other authors, collected in US12201642B2, “Composition for the treatment of COVID-19” (priority 2020, dated 2025).

Tests used:
HCMV = conditions: cultures of smooth muscle cells

CC(=O)Oc1ccccc1C(=O)O [Aspirin, Acetylsalicylic acid]
reduction of the yield of HCMV (factor) (HCMV): 2-3 | toxic side-effects (influenza virus; as anti-influenza agent): no toxic side-effects | effect on influenza virus replication (influenza virus; in vitro and in vivo): efficiently blocks influenza virus replication | antiviral effectiveness (influenza A H1N1 virus): highly effective
